The values that follow come from ChEMBL document CHEMBL5108026, “An overview on Estrogen receptors signaling and its ligands in breast cancer” (Eur J Med Chem, 2022).

The target of assay [1] is T1, Estrogen receptor beta (Homo sapiens, UniProt Q92731). The assay is described as follows: Agonist activity at human ER-beta transfected in African green monkey COS-7 cells measured after 24 hrs by Steady-Glo luciferase assay. It counts as cell-based.
In assay [2] the target is T2, Aromatase (Rattus norvegicus, UniProt P22443).
T2 sequence (P22443 whole entry): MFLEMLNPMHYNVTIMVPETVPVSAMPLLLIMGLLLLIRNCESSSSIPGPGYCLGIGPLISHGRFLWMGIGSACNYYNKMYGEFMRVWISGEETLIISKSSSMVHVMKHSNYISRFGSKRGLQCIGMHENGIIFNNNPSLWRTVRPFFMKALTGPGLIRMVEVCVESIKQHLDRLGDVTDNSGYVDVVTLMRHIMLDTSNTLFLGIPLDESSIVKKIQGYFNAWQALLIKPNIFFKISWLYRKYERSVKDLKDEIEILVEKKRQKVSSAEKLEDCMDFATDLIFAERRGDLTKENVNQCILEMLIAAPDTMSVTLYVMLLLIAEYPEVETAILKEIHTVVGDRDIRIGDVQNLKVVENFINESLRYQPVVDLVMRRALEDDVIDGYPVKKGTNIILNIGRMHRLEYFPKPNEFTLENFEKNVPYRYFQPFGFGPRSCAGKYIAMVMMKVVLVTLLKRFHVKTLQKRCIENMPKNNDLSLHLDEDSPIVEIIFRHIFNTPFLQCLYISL
In words: Inhibition of aromatase in rat mammary tumor. It counts as tissue-based, Mammary gland.

Assay [3] concerns the target T1, Estrogen receptor beta. In words: Modulation of ER-beta (unknown origin).
Assay [4] concerns the target T3, Estrogen receptor (Homo sapiens, UniProt P03372).
T3 sequence (P03372 whole entry): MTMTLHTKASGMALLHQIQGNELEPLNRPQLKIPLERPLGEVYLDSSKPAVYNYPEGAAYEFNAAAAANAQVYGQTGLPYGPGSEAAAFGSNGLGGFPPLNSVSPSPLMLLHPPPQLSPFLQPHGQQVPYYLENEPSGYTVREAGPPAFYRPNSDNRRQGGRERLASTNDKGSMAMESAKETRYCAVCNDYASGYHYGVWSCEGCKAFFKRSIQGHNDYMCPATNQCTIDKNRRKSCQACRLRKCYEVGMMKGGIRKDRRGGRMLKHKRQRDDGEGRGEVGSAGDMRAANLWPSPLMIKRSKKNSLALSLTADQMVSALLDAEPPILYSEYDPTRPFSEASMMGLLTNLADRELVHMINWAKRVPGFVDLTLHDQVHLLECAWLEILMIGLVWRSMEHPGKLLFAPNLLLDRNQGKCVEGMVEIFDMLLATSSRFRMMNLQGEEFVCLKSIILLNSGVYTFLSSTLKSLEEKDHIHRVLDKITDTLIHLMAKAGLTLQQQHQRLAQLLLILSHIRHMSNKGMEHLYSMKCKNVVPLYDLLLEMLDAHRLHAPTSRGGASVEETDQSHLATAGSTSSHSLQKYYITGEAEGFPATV
The assay is described as follows: Modulation of ER-alpha (unknown origin).

Assay [5] addresses T1, Estrogen receptor beta. The assay is described as follows: Displacement of EL red from human full-length ER-beta expressed in baculovirus expression system incubated for 2 hrs by fluorescence polarization assay. In general terms: Polarisation of emitted light reports the rotation of a fluorescent probe.
Assay [6] deals with MCF7. The assay is described as follows: Antiproliferative activity against human MCF7 cells assessed as inhibition of cell growth. It counts as functional, cell-based.

T1 sequence (Q92731 whole entry): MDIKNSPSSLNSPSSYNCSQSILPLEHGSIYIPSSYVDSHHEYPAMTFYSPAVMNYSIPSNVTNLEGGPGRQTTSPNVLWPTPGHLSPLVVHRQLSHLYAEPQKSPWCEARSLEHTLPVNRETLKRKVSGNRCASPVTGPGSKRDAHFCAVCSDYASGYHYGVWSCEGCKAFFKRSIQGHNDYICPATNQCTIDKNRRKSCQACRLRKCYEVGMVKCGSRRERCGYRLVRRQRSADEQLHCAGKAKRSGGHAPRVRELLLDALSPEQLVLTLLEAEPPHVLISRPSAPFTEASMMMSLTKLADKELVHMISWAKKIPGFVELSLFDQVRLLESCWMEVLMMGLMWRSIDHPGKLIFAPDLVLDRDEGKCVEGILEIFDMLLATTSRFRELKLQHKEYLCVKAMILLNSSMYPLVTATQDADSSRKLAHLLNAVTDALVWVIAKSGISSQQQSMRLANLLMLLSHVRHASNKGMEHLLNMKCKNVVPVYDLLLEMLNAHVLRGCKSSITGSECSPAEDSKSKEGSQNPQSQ

In general, EC50 refers to the concentration needed to bring the measured effect to its halfway point. Turning to `CCOC(=O)C1(C(C)=O)Cc2ccc([C@]3(O)CC[C@H]4[C@@H]5CCc6cc(O)ccc6[C@H]5CC[C@@]43C)cc2C1` (stereo partly specified), the concentration giving a half-maximal response (EC50) in assay [1] is 1.8 nM.
A word on the Ki: it is a measure of affinity in units of concentration, obtained from inhibition or displacement. `C[C@]12C=CC(=O)C=C1C[C@@H](Sc1ccc(N)cc1)[C@@H]1[C@@H]2CC[C@]2(C)C(=O)CC[C@@H]12` returned an inhibitory constant (Ki) in assay [2] of 18 nM.
With `C[C@]12CC[C@@H]3c4ccc(O)cc4CC[C@H]3[C@@H]1C[C@H]1OC(=O)C[C@]12O`, the 50% effective concentration (EC50) in assay [3] is 23 nM; in assay [4], 0.014 nM.
A word on the IC50: it is the concentration that inhibits the measured activity by half. Compound `Oc1ccc([C@H]2COc3cc(O)ccc3C2)cc1` [AUS-131] gave a 50% inhibitory concentration (IC50) in assay [5] of 5570 nM.
On to `C[C@]12CC[C@@H]3c4ccc(O)cc4C[C@@H](CCCCCCCCC[S+]([O-])CCCC(F)(F)C(F)(F)F)[C@H]3[C@@H]1CC[C@@H]2O` (stereo partly specified) [FULVESTRANT], for which the IC50 in assay [6] came to 0.29 nM.
